# Experimental data as given in patent publication US5321030A, “Creatine analogs having antiviral activity” (priority 1991, dated 1994).
# Like-named read-outs stand apart in the source and are kept apart here.
# Key:
# [1] = Cytotoxicity in plaque reduction assay, Hs68 cells; type: cell-based; details: human, Table 5, read-out: CD50 (the source's name)
# Experimental: Cytotoxicity was determined by examination of cells (located away from plaques) in infected wells which had been treated with drug.
# HCMV, strain AD-169 = test: Plaque reduction assay, HCMV strain AD-169; type: cell-based, Human Cytomegalovirus; design: TI50 (CD50 ÷ ED50): unit not given here; details: for EC50: read-out: ED50 (the source's name)
# [2] = system: herpes simplex virus type 2 (HSV-2), strain E194; test: HSV-2 vaginitis in mice; type: in vivo, Swiss Webster female mice
compound,measurement,setting,value
"NC1=NCCN1CC(=O)O [cyclocreatine, 1-carboxymethyl-2-iminoimidazolidine]",CC50,[1],> 4000 µg/mL
same,TI50 (CD50 ÷ ED50),"HCMV, strain AD-169; Hs-68 cells, Table 5",greater than 6.2
same,TI50 (CD50 ÷ ED50),"HCMV, strain AD-169; Hs-68 cells, Table 5, listed as AM-285",> 6.2
same,# Plaques,"HCMV, strain AD-169; Hs-68 cells, AM-285 62.5 μg/ml, virus control 74.2 ± 8.6",71
same,# Plaques,"HCMV, strain AD-169; Hs-68 cells, AM-285 125 μg/ml, virus control 74.2 ± 8.6",65
same,# Plaques,"HCMV, strain AD-169; Hs-68 cells, AM-285 260 μg/ml, virus control 74.2 ± 8.6",87
same,# Plaques,"HCMV, strain AD-169; Hs-68 cells, AM-285 500 μg/ml, virus control 74.2 ± 8.6",41
same,# Plaques,"HCMV, strain AD-169; Hs-68 cells, AM-285 1000 μg/ml, virus control 74.2 ± 8.6",19.5
same,# Plaques,"HCMV, strain AD-169; Hs-68 cells, AM-285 2000 μg/ml, virus control 74.2 ± 8.6",1.5
same,# Plaques,"HCMV, strain AD-169; Hs-68 cells, AM-285 4000 μg/ml, virus control 74.2 ± 8.6",0
same,inhibition at 260 µg/mL,"HCMV, strain AD-169; Human betaherpesvirus 5, AD169, Hs68, read-out: % Reduction",0%
same,EC50,"HCMV, strain AD-169; Human betaherpesvirus 5, AD169, Hs68, Hs-68 cells, Table 5",647 µg/mL
same,inhibition at 62.5 µg/mL,"HCMV, strain AD-169; Human betaherpesvirus 5, AD169, Hs68, Hs-68 cells, AM-285 62.5 μg/ml",0%
same,inhibition at 125 µg/mL,"HCMV, strain AD-169; Human betaherpesvirus 5, AD169, Hs68, Hs-68 cells, AM-285 125 μg/ml",0%
same,inhibition at 500 µg/mL,"HCMV, strain AD-169; Human betaherpesvirus 5, AD169, Hs68, Hs-68 cells, AM-285 500 μg/ml",45%
same,inhibition at 1000 µg/mL,"HCMV, strain AD-169; Human betaherpesvirus 5, AD169, Hs68, Hs-68 cells, AM-285 1000 μg/ml",74%
same,inhibition at 2000 µg/mL,"HCMV, strain AD-169; Human betaherpesvirus 5, AD169, Hs68, Hs-68 cells, AM-285 2000 μg/ml",98%
same,inhibition at 4000 µg/mL,"HCMV, strain AD-169; Human betaherpesvirus 5, AD169, Hs68, Hs-68 cells, AM-285 4000 μg/ml",100%
same,EC50,"HCMV, strain AD-169; Human betaherpesvirus 5, AD169, MRC5, MRC-5 cells, Table 4",610 µg/mL
same,inhibition at 62.5 µg/mL,"HCMV, strain AD-169; Human betaherpesvirus 5, AD169, MRC5, MRC-5 cells, AM 285 62.5 μg/ml",0%
same,inhibition at 125 µg/mL,"HCMV, strain AD-169; Human betaherpesvirus 5, AD169, MRC5, MRC-5 cells, AM 285 125 μg/ml",0%
same,inhibition at 250 µg/mL,"HCMV, strain AD-169; Human betaherpesvirus 5, AD169, MRC5, MRC-5 cells, AM 285 250 μg/ml",0%
same,inhibition at 500 µg/mL,"HCMV, strain AD-169; Human betaherpesvirus 5, AD169, MRC5, MRC-5 cells, AM 285 500 μg/ml",54%
same,inhibition at 1000 µg/mL,"HCMV, strain AD-169; Human betaherpesvirus 5, AD169, MRC5, MRC-5 cells, AM 285 1000 μg/ml",75%
same,inhibition at 2000 µg/mL,"HCMV, strain AD-169; Human betaherpesvirus 5, AD169, MRC5, MRC-5 cells, AM 285 2000 μg/ml",100%
same,inhibition at 4000 µg/mL,"HCMV, strain AD-169; Human betaherpesvirus 5, AD169, MRC5, MRC-5 cells, AM 285 4000 μg/ml",100%
same,TI50 (CD50 ÷ ED50),"HCMV, strain AD-169; MRC-5 cells, Table 4",greater than 6.5
same,TI50 (CD50 ÷ ED50),"HCMV, strain AD-169; MRC-5 cells, Table 4, listed as AM 285",> 6.5
same,# Plaques,"HCMV, strain AD-169; MRC-5 cells, AM 285 62.5 μg/ml, virus control 26.4 ± 5.2",25
same,# Plaques,"HCMV, strain AD-169; MRC-5 cells, AM 285 125 μg/ml, virus control 26.4 ± 5.2",26
same,# Plaques,"HCMV, strain AD-169; MRC-5 cells, AM 285 250 μg/ml, virus control 26.4 ± 5.2",23
same,# Plaques,"HCMV, strain AD-169; MRC-5 cells, AM 285 500 μg/ml, virus control 26.4 ± 5.2",12
same,# Plaques,"HCMV, strain AD-169; MRC-5 cells, AM 285 1000 μg/ml, virus control 26.4 ± 5.2",6
same,# Plaques,"HCMV, strain AD-169; MRC-5 cells, AM 285 2000 μg/ml, virus control 26.4 ± 5.2",0
same,# Plaques,"HCMV, strain AD-169; MRC-5 cells, AM 285 4000 μg/ml, virus control 26.4 ± 5.2",0
same,antiviral effect in vaginitis model,[2]; 1% dietary,"comparable to that achieved by acyclovir at 200 mg/kg, 100 mg/kg or 50 mg/kg"
same,average lesion score,"[2]; 1% in chow, Grand Ave. (Days 3-14)",0.8 ± 0.2
same,average lesion score,"[2]; 1% in chow, day 3",0.2 ± 0.2
same,average lesion score,"[2]; 1% in chow, day 4",0.5 ± 0.7
same,average lesion score,"[2]; 1% in chow, day 5",0.9 ± 1.3
same,average lesion score,"[2]; 1% in chow, day 6",0.9 ± 1.3
same,average lesion score,"[2]; 1% in chow, day 7",0.8 ± 1.4
same,average lesion score,"[2]; 1% in chow, day 8",0.8 ± 1.4
same,average lesion score,"[2]; 1% in chow, day 9",1.0 ± 1.3
same,average lesion score,"[2]; 1% in chow, day 10",1.1 ± 1.3
same,average lesion score,"[2]; 1% in chow, day 11",1.0 ± 1.3
same,average lesion score,"[2]; 1% in chow, day 12",0.9 ± 1.3
same,average lesion score,"[2]; 1% in chow, day 13",0.9 ± 1.4
same,average lesion score,"[2]; 1% in chow, day 14",0.7 ± 1.4
same,activity in vaginitis model,[2]; 5% and […] cream topical,inactive
same,average lesion score,"[2]; 5% cream topical, Grand Ave. (Days 3-14)",2.3 ± 1.1
same,average lesion score,"[2]; 5% cream topical, day 3",0.3 ± 0.3
same,average lesion score,"[2]; 5% cream topical, day 4",0.4 ± 0.4
same,average lesion score,"[2]; 5% cream topical, day 5",1.5 ± 1.1
same,average lesion score,"[2]; 5% cream topical, day 6",2.1 ± 1.6
same,average lesion score,"[2]; 5% cream topical, day 7",2.0 ± 1.3
same,average lesion score,"[2]; 5% cream topical, day 8",2.8 ± 1.8
same,average lesion score,"[2]; 5% cream topical, day 9",3.2 ± 1.6
same,average lesion score,"[2]; 5% cream topical, day 10",3.2 ± 1.5
same,average lesion score,"[2]; 5% cream topical, day 11",3.1 ± 1.5
same,average lesion score,"[2]; 5% cream topical, day 12",3.0 ± 1.5
same,average lesion score,"[2]; 5% cream topical, day 13",3.0 ± 1.5
same,average lesion score,"[2]; 5% cream topical, day 14",3.0 ± 1.5
same,survival,[2]; 10% cream topical (16% in the placebo group),40%
same,effect on average lesion score,"[2]; 10% cream topical, FIG. 10",slightly reduces the average lesion score
same,average lesion score,"[2]; 10% cream topical, Grand Ave. (Days 3-14)",1.6 ± 0.8
same,average lesion score,"[2]; 10% cream topical, day 3",0.2 ± 0.2
same,average lesion score,"[2]; 10% cream topical, day 4",0.1 ± 0.2
